Results: patent US10906876B2, “Tetrahydroisoquinolines as selective NADPH oxidase 2 inhibitors” (University of Pittsburgh—Of the Commonwealth System of …, priority 2013, dated 2021)
Read-outs that look alike come from different tables or passages of the source.

Columns and labels:
Bovine milk XO = target: T1, Bovine milk XO (Bos taurus, UniProt P80457); test: Xanthine oxidase assay (Amplex Red); assay type: biochemical; details: compounds at 25 μM and 50 μM (FIG. 4)
T1 construct: Bovine milk XO (grade 1, ammonium sulfate suspension; Sigma-Aldrich); purchased Sigma-Aldrich; host or cells: bovine milk
Experimental: Bovine milk XO (grade 1, ammonium sulfate suspension; Sigma-Aldrich) was first desalted using PD-10 columns (Sephadex G-25, GE Healthcare Biosciences, Piscataway, N.J.) equilibrated in PBS. XO activity was assayed by measuring H2O2 production using the Amplex® Red assay. Reaction mixture contained: 0.02 U/mL XO, 25 mM Hepes, pH 7.4, containing 0.12 M NaCl, 3 mM KCl, 1 mM MgCl2, 0.1 mM Amplex® Red, and 0.32 U/mL of horse radish peroxidase (HRP), reaction was initiated by addition of 1 mM hypoxanthine. Fluorescence was quantified over time using a Biotek Synergy 4 Hybrid Multi-Mode Microplate Reader.
Data are expressed as % of vehicle control.

Nox2 = target: T2, Nox2 (Homo sapiens, UniProt P04839); test: Cell-free superoxide production in lysed COS-Nox2 cells / Nox2 cell homogenate, cytochrome C assay; assay type: biochemical
T2 construct: expressed in transfected cells
T2 sequence (P04839 2-570 limits assumed): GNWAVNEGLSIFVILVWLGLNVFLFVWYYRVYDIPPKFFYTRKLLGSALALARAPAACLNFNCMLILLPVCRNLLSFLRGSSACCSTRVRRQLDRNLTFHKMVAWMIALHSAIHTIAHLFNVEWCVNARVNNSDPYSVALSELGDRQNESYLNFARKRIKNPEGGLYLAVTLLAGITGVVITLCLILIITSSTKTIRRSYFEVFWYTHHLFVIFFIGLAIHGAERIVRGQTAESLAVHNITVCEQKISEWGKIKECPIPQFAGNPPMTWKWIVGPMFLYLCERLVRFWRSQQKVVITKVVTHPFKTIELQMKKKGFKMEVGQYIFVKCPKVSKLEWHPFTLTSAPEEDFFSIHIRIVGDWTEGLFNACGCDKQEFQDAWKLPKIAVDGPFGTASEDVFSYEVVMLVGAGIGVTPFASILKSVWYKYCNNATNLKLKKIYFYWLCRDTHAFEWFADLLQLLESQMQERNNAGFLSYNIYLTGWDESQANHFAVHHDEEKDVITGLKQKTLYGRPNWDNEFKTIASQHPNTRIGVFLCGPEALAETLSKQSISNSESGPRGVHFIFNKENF
Experimental: COS-Nox2, COS-Nox1/NOXO1/NOXA1 and COS-22 cells were suspended to a concentration of 5×10^7 cells/ml in ice-cold disruption buffer (8 mM potassium, sodium phosphate buffer pH 7.0, 131 mM NaCl, 340 mM sucrose, 2 mM NaN3, 5 mM MgCl2, 1 mM EGTA, 1 mM EDTA and protease inhibitor cocktail) (Price et al., Blood, 2002, 99:2653-2661; Molshanski-Mor et al., Methods Mol. Biol., 2007, 412:385-428). The cells were lysed by freeze/thaw cycles (5 cycles), and passed through a 30-gauge needle 5 times to further lyse the cells. Cell disruption was confirmed by phase contrast microscopy. The cell lysate was centrifuged at 1000×g for 10 min at 4° C. to remove unbroken cells, nuclei and debris. Throughout all procedures, extreme care was taken to maintain the lysate at a temperature close to 0° C. Superoxide (O2^•−) production was calculated from the initial linear rate (over 10 min) of SOD-inhibitable cytochrome c reduction quantified at 550 nm using the extinction coefficient of 21.1 mM^−1 cm^−1 (Biotek Synergy 4 Hybrid Multi-Mode Microplate Reader). The oxidase assay buffer consisted of 65 mM sodium phosphate buffer (pH 7.0), 1 mM EGTA, 10 μM FAD, 1 mM MgCl2, 2 mM NaN3 and 0.2 mM cytochrome C. The components of the cell-free system were added in the following order: oxidase assay buffer, cell lysate (5×10^5 cell equivalents/well) and drugs at a final concentration as shown on individual graphs. The plates were placed on an orbital shaker to mix contents for 5 min at 120 movements/min at room temperature. LiDS, an established lipid activator of phagocyte cell-free system, was added at a concentration of 130 μM and O2^•− production was initiated by the addition of 180 μM NADPH.
Cell-free activity in lysed COS-Nox2 cells was promising, since compound 7 was also able to inhibit O2^•− production in a system in which assembly of active Nox2 subunits is achieved by treatment with the anionic amphiphile LiDS (lithium dodecyl sulfate) and the reaction is initiated by cofactor NADPH (Molshanski-Mor et al., Methods Mol. Biol. 2007, 412:385-428). COS-Nox2 cell lysate was preincubated with various concentrations of compound 7 for 15 min at 25° C. After the addition of 130 μM LiDS, O2^•− production was initiated by the addition of 180 μM NADPH and measured by the initial linear rate of SOD-inhibitable cytochrome C reduction. O2^•− production is expressed as nmol O2^•−/min/10^7 cell equivalents.
Cells were suspended to a concentration of 5×10^7 cells/ml in ice-cold disruption buffer (8 mM potassium, sodium phosphate buffer pH 7.0, 131 mM NaCl, 340 mM sucrose, 2 mM NaN3, 5 mM MgCl2, 1 mM EGTA, 1 mM EDTA and protease inhibitor cocktail). The cells were lysed by freeze/thaw cycles (5 cycles), and passed through a 30-gauge needle five times to further lyse the cells. Cell disruption was confirmed by phase contrast microscopy. The cell lysate was centrifuged at 1000×g for 10 min at 4° C. to remove unbroken cells, nuclei and debris. Throughout all procedures, extreme care was taken to maintain the lysate at a temperature close to 0° C.
(§1) Superoxide (O2^•−) production from cell homogenates was calculated from the initial linear rate (over 10 min) of SOD-inhibitable cytochrome c reduction quantified at 550 nm using the extinction coefficient of 21.1 mM-1 cm-1 (Biotek Synergy 4 Hybrid Multi-Mode Microplate Reader). The oxidase assay buffer consisted of 65 mM sodium phosphate buffer (pH 7.0), 1 mM EGTA, 10 μM FAD, 1 mM MgCl2, 2 mM NaN3 and 0.2 mM cytochrome C.

[1] = test system: human pulmonary artery endothelial cells (HPAEC); test: Superoxide production of HPAEC treated with high glucose; assay type: cell-based; details: 25 mM glucose 24 hr, 25 μM compound
Experimental: (§2) Cos-Nox2, Cos-Nox1, human fibroblasts were cultured in DMEM, 10% FBS-supplemented media, human pulmonary artery endothelial cells were cultured in EBM2media containing growth factors (Lonza) and rat neonatal cardiomyocytes were cultured in DMEM/F12 (50/50) media supplemented with 5% horse serum, 100 μM BrdU and Insulin-Transferrin-Selenium (ITS, Gibco).
as §1
Compounds 11g and 11h subsequently were tested in parenchymal cell lines where more than one Nox could be present and activated. Human pulmonary artery endothelial cells (HPAEC) were treated with high glucose (25 mM) for 24 hr in the presence or absence of the compounds. […] Under these conditions both compounds 11g and 11h attenuated the high glucose-stimulated superoxide production (FIG. 9).

[2] = test system: human pulmonary artery endothelial cells (HPAEC); test: ROS production of HPAEC treated with angiotensin II; assay type: cell-based; details: angiotensin II 24 hrs, 25 μM compound, preliminary data
Experimental: as §2

[3] = cell-free system, data not shown, read-out: IC50 in a cell-free system

T1 sequence (P80457 whole entry): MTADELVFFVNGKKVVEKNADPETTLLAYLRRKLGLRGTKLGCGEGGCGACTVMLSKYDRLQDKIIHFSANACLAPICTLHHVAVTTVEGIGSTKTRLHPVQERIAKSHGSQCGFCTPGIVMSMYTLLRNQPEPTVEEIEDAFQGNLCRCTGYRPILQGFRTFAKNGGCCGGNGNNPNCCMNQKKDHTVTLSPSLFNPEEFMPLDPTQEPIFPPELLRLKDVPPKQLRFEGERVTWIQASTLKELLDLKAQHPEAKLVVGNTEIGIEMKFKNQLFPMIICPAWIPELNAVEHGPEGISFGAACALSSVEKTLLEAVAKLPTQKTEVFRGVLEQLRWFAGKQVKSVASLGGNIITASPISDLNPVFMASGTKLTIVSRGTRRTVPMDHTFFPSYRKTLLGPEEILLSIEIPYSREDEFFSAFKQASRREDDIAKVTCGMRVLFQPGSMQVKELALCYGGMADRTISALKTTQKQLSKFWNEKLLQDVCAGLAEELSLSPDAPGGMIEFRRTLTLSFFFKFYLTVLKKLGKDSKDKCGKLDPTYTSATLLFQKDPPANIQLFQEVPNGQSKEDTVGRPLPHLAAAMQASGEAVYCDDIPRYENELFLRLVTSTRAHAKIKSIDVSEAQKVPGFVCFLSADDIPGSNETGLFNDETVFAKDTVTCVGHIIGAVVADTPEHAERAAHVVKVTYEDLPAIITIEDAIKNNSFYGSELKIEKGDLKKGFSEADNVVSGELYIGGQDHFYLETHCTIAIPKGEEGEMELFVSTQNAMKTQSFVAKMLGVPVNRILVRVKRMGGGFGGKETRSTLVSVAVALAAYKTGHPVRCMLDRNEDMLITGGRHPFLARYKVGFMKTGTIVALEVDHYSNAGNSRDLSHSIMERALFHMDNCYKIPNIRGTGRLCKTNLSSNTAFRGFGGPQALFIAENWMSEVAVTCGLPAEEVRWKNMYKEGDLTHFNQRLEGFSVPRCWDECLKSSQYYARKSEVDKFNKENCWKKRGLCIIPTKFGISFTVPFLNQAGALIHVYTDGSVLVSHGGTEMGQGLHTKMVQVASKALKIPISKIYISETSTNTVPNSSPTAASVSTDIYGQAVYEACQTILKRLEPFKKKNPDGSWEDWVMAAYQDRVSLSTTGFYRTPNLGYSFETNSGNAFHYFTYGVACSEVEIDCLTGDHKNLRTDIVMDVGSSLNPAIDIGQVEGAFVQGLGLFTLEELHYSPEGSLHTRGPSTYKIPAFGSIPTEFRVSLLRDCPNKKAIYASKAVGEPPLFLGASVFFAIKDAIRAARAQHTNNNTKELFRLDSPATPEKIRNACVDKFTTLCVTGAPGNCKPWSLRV

| SMILES | Effect on ROS production by xanthine oxidase (Bovine milk XO) | IC50 (Nox2; [3]) [nM] | High glucose-stimulated superoxide production [1] | AngII-stimulated ROS production [2] | IC50 (Nox2; Nox2 cell homogenate stimulated with LiDS, read-out: IC50 in ROS production by Nox2 cell homogenate) [nM] | IC50 in cell homogenate lower than that for whole cells (Nox2; homogenate vs whole cells) [fold] | LiDS-stimulated O2•− generation (Nox2; 6.3 μM compound, lysed COS-Nox2 cells, 130 μM LiDS, 180 μM NADPH) |
| --- | --- | --- | --- | --- | --- | --- | --- |
| C=C(C)CC1C2c3c(Br)cccc3C(CC2(C)C)N1Cc1cccs1 (racemic) [Compound 11h, (±)-(1S,4R,9S)-5-Bromo-3,3-dimethyl-9-(2-methylallyl)-10-(thiophen-2-ylmethyl)-1,2,3,4-tetrahydro-1,4-(epiminomethano)naphthalene] | virtually no effect | ~30 | attenuated | differential effect | – | – | – |
| C=C(C)CC1C2c3c(Br)cccc3C(CC2(C)C)N1CCCCC (racemic) [Compound 11g, (±)-(1S,4R,9S)-5-Bromo-3,3-dimethyl-9-(2-methylallyl-10-pentyl-1,2,3,4-tetrahydro-1,4-(epiminomethano)naphthalene] | virtually no effect | ~30 | attenuated | differential effect | 32.4 ± 9 | 100 | – |
| C=C(C)CC1NC2CC(C)(C)C1c1c(Br)cccc12 (racemic) [Compound 7, (±)-(1S,4R,9S)-5-Bromo-3,3-dimethyl-9-(2-methylallyl)-1,2,3,4-tetrahydro-1,4-(epimino-methano)-naphthalene] | – | – | – | – | – | – | almost non-stimulated levels |
